Values quoted from earlier work, collected in patent publication EP0374097A2, “Use of peptide isosteres as retroviral protease inhibitors” (CIBA-GEIGY AG, priority 1988, dated 1990).

System: gag-Protease von HIV
Details: stated as known

Substance: Pepstatin
- Hemmung der gag-Protease von HIV: gehemmt
